Assay results published in publication PMC10357585 (Biochemistry, 2023).
Marks after values point to notes of the source that are not given here. Each block holds one compound with its values, some of them ahead of it.

Tests used:
TcHGXPRT [1] = target: T1, TcHGXPRT (Trypanosoma cruzi, UniProt Q4DRC3); test: Dead-end inhibition studies of TcHGXPRT; format: biochemical
T1 sequence (Q4DRC3 1-231): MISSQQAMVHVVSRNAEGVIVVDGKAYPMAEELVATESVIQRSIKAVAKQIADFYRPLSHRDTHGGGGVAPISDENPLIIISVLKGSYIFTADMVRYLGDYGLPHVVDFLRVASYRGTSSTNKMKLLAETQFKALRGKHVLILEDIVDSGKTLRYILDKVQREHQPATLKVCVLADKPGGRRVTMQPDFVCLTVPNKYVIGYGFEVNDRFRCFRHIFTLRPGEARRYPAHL

TcA (HGPRT) = conditions: variable 6-oxopurine, PRPP 1 mM, ref Glockzin et al., 2022.[43]; cited from earlier work
TcHGXPRT [2] = target: T1, TcHGXPRT; test: Initial rate studies of TcHGXPRT, GMP biosynthesis; format: biochemical; conditions: for kcat: GMP biosynthesis; for Ki: Ki,PRPP
TcHGPRT = conditions: variable substrate PRPP (20–215 μM); ref Wenck et al., 2004.[30]; cited from earlier work
TcHGXPRT [3] = target: T1, TcHGXPRT; test: Product inhibition studies of TcHGXPRT; format: biochemical; conditions: PRPP 1 mM
PfHGXPRT = conditions: read-out: apparent Km, Xan as substrate; cited from earlier work
[4] = variable substrate Guanine (10–300 μM) at fixed PRPP levels
[5] = variable substrate PRPP (1–78 μM) at fixed Gua levels

SMILES: Nc1nc2nc[nH]c2c(=O)[nH]1 [Gua, guanine]
- Km (TcA (HGPRT)): 19 ± 1 µM
- kcat (TcA (HGPRT)): 32 ± 1 ^b s^–1
- kcat (TcHGXPRT [2]; [4]): 0.46 ± 0.01 s^–1
- KGua (TcHGPRT): 12 ± 1 ^d μM
- kcat/KGua (TcHGPRT): 2650 ^d × 10^3 M^–1 s^–1

SMILES: O=c1[nH]cnc2nc[nH]c12 [Hx, hypoxanthine]
- Km (TcA (HGPRT)): 13 ± 4 µM
- kcat (TcA (HGPRT)): 32 ± 1 ^b s^–1

SMILES: O=c1[nH]c(=O)c2nc[nH]c2[nH]1 [Xan, xanthine]
- Km (TcA (HGPRT)): 160 ± 40 µM
- kcat (TcA (HGPRT)): 0.005 ± 0.0006 ^b s^–1
- Km (PfHGXPRT): 189 to 420 µM

Second part, led by results:

- Ki (TcHGXPRT [1]): 70 ± 10 µM
- Inhibition pattern (TcHGXPRT [1]; 9-deazaxanthine (0–250 μM) vs. variable Xan (3–100 μM), PRPP 1 mM): C ^e
- Inhibition pattern (TcHGXPRT [1]; 9-deazaxanthine (0–600 μM) vs. variable PRPP (23–750 μM), Xan 120 μM): UC ^e
- Kii (TcHGXPRT [1]; 9-deazaxanthine vs. variable PRPP, Xan 120 μM, 37 °C, pH 8.3, 12 mM MgCl2): 490 ± 40 µM
SMILES: O=c1[nH]c(=O)c2[nH]ccc2[nH]1 [9-deazaxanthine]

- Inhibition pattern (TcHGXPRT [3]; PPi (0–200 μM) vs. variable Xan (2.5–150 μM)): NC ^e
- Kii (TcHGXPRT [3]; PPi vs. variable Xan): 1400 ± 400 µM
- Ki (TcHGXPRT [3]; read-out: Kis, PPi vs. variable Xan): 190 ± 40 µM
SMILES: O=P(O)(O)OP(=O)(O)O [PPi, pyrophosphate]

- kcat (TcHGXPRT [2]; [5]): 0.44 ± 0.02 s^–1
- Ki (TcHGXPRT [2]; [4]): 0.7 ± 0.2 µM
- Ki (TcHGXPRT [2]; [5]): 0.6 ± 0.3 µM
SMILES: O=P(O)(O)OC[C@H]1O[C@H](OP(=O)(O)OP(=O)(O)O)[C@H](O)[C@@H]1O [PRPP, 5-phospho-D-ribose 1-pyrophosphate]
- KPRPP (TcHGPRT): 32 ± 5 ^d μM
- kcat/KPRPP (TcHGPRT): 1010 ^d × 10^3 M^–1 s^–1
